Experimental data as given in ChEMBL document CHEMBL1800049, “Aryl 1,4-diazepane compounds as potent and selective CB2 agonists: optimization of drug-like properties and target independent parameters” (Bioorg Med Chem Lett, 2011).

Assays:
[1] = Permeability from apical to basolateral side of human Caco2 cells at 10 uM after […] by HPLC-MS/MS analysis; type: ADME, cell-based; conditions: Caco-2, read-out: permeability
[2] = Permeability from basolateral to apical side of human Caco2 cells at 10 uM after […] by HPLC-MS/MS analysis; type: ADME, cell-based; conditions: Caco-2, read-out: permeability
[3] = Oral bioavailability in cynomolgus monkey; type: ADME, organism-based, Macaca fascicularis; conditions: in vivo

Row | Structure (SMILES) | Papp A→B at […], 10 µM [1] | Papp B→A at […], 10 µM [2] | bioavailability [3]
1 | CC(C)(C)c1cc(NC(=O)N2CCCN(C(=O)C3CCOCC3)CC2)no1 | 7 ×10⁻⁶ cm/s | 42 ×10⁻⁶ cm/s | 3%
2 | CC(C)(C)c1ccc2oc(N3CCCN(C(=O)C4CCOCC4)CC3)nc2c1 | 49 ×10⁻⁶ cm/s | 64 ×10⁻⁶ cm/s | –
3 | O=C(C1CCOCC1)N1CCCN(c2nc3ccc(Cl)cc3s2)CC1 | 62 ×10⁻⁶ cm/s | 71 ×10⁻⁶ cm/s | –
4 | O=C(C1CCOCC1)N1CCCN(c2nc(-c3ccccc3)ns2)CC1 | 67 ×10⁻⁶ cm/s | 61 ×10⁻⁶ cm/s | –
5 | O=C(C1CCOCC1)N1CCCN(c2nc(C(F)(F)F)c(Cl)s2)CC1 | 53 ×10⁻⁶ cm/s | 70 ×10⁻⁶ cm/s | –
